In patent US8115197B2, “Organic semiconductor material, organic semiconductor thin film and organic semiconductor device” (Sony Corporation, priority 2005, dated 2012):

Experiment: dissolution into hexane solution at room temperature
Type: physicochemical
Experimental: Also, experiments were carried out in which the polyacene derivative of example 1, the polyacene derivative of example 2, the polyacene derivative of example 3 and the polyacene derivative of example 4 were respectively dissolved into hexane solution at room temperature. […] Also, the polyacene derivative of the inventive example 4 of which number of the substituents is less than that of the polyacene derivative of example 2 by four was dissolved into the hexane solution.

| SMILES | solubility in hexane solution |
| --- | --- |
| CCCCc1c(C(=O)OC)c(C(=O)OC)c(CCCC)c2cc3c(CCCC)c4cc5c(CC)c(CC)c(CC)c(CC)c5cc4c(CCCC)c3cc12 [example 1, 2,3-bis methoxycarbonyl-1,4,6,13-tetrabutyl-8,9,10,11-tetraethyl pentacene] | dissolved |
| CCc1c(CC)c(CC)c2cc3c(CC)c4cc5c(CC)c(C(=O)OC)c(C(=O)OC)c(CC)c5cc4c(CC)c3cc2c1CC [example 2, 2,3-bis methoxycarbonyl-1,4,6,8,9,10,11 13-octaethyl pentacene] | hardly dissolved |
| CCCc1c(C(=O)OC)c(C(=O)OC)c(CCC)c2cc3c(CCC)c4cc5c(CC)c(CC)c(CC)c(CC)c5cc4c(CCC)c3cc12 [example 3, 2,3-bis methoxycarbonyl-8,9,10,11-tetra ethyl-1,4,6,13-tetra propyl pentacene] | dissolved |
| CCCCc1c(C(=O)OC)c(C(=O)OC)c(CCCC)c2cc3c(CCCC)c4cc5ccccc5cc4c(CCCC)c3cc12 [example 4, 2,3-bis methoxycarbonyl-1,4,6,13-tetrabuyl pentacene] | dissolved |
